Drawing on patent publication US20090325894A1 (priority 2007, published 2009), this text covers IC50 and solubility in water for 24 compounds.

In data set [1] the test system is LoVo cells. As to the kind of experiment: Cell growth inhibition assay (MTS assay), LoVo cells. Conditions: 48 hours, RPMI1640-SIT serum-free medium, read-out: Half maximal inhibitory concentration (IC50) LoVo cells. In kind it is cell-based, Human. On the procedure:
(§1) Cell Growth Inhibition Assay (MTS Assay)
(§2) 1. Cell Strain and Reagents
LoVo: Human colorectal adenocarcinoma cell line (ATCC catalog # CCL-229);
(§3) SIT solution (SIGMA), RPMI 1640 culture solution, Phosphate buffer, Dimethyl sulfoxide (DMSO), MTS solution (Promega), 96-well cell culture plate;
(§4) Anti-tumor compounds: synthesized by Tianjin Hemay Bio-tech Co., Ltd.;
(§5) Positive control drugs: doxorubicin (Zhejiang Hisun Pharmaceutical Co., Ltd).
(§6) The above-mentioned cells were cultured for several days (RPMI 1640, 10% of bovine serum), collected and suspended in RPMI1640-SIT serum-free medium, placed into a 96-well cell culture plate with each well containing about 20,000 cells/100 μL. The cells were cultured overnight at 5% CO2 and 37° C. The next day, representative antitumor compounds (between 3 and 10 mM) were dissolved in dimethyl sulphoxide (DMSO) to obtain a mother solution. Doxorubicin was used as positive control, DMSO was used as negative control.
(§7) The mother solution was diluted and added to the 96 well cell culture plate, culture for 48 hours at 5% CO2 and 37° C. Subsequently, 20 μL of MTS solution was added to each well of the 96 well cell culture plate and cultured for another 2 to 4 hours at 5% CO2 and 37° C. Absorbance was read at 490 nm wavelength, and converted into cell survival rate.
(§8) Calculation of Percent Inhibition:
(§9) %inhibition=100−[reading of absorbance(compound)/reading of absorbance(blank)]×100
(§10) For each concentration, there two measurements were taken and the average value was recorded. The half maximal inhibitory concentration (IC50) of cell growth was calculated by cell growth inhibition curve.

In data set [2] the test system is HeLa cells. As to the kind of experiment: Cell growth inhibition assay (MTS assay), HeLa cells. In kind it is cell-based, Human. As to conditions: 48 hours, RPMI1640-SIT serum-free medium, read-out: Half maximal inhibitory concentration (IC50) HeLa cells. On the procedure: as §1, §2
HeLa: Human adenocarcinoma cell line (ATCC catalog # CCL-2);
as §3, §4, §5, §6, §7, §8, §9, §10
On the technique in general: Formazan colour is commonly taken as a measure of viable cells.

The subject of data set [3] is SW620 cells. As to the kind of experiment: Cell growth inhibition assay (MTS assay), SW620 cells. Conditions: RPMI1640-SIT serum-free medium, read-out: Half maximal inhibitory concentration (IC50) SW620 cells. In kind it is cell-based, Human. As for the experimental part: as §1, §2
SW620: Human colorectal adenocarcinoma cell line;
as §3, §4, §5, §6, §7, §8, §9, §10

Data set [4] can be described thus: Solubility in water. In kind it is physicochemical.

Where two headings read alike, the source gives them in different places.

Consider “2-(2-(2-(2-(2-(2-(2-oleoylaminoethoxy)ethoxy)ethoxy)ethoxy)ethoxy)ethoxy)acetyl-L-Alanyl-L-Valyl-Doxorubicin [Example 68]”, for which, in data set [1], the IC50 came out at 30 µM.

“4-(2-(2-oleoylaminoethoxy)ethylamino)-4-oxo-butanoyl-L-Alanyl-L-Valyl-Doxorubicin bissuccinate [Example 77]”: the IC50 in data set [2] was determined as 75 µM; in data set [1], 12 µM.

“4-(2-oleoylaminoethylamino)-4-oxo-butanoyl-L-Alanyl-L-Valyl-Doxorubicin bissuccinate [Example 79]”: the IC50 in data set [1] came to 50 µM.

Regarding `COc1cccc2c1C(=O)c1c(O)c3c(c(O)c1C2=O)C[C@@](O)(C(=O)CO)C[C@@H]3O[C@H]1C[C@H](N)[C@H](O)[C@H](C)O1` [Doxorubicin, doxorubicin, reference compound], the IC50 stood at 0.3 µM in data set [2] (Homo sapiens, HeLa); 650 nM in data set [3] (Homo sapiens, SW-620, 48 hours); 2.6 µM in data set [1] (Homo sapiens, LoVo).

Turning to `COc1cccc2c1C(=O)c1c(O)c3c(c(O)c1C2=O)CC(O)(C(=O)CO)CC3OC1CC(NC(=O)[C@@H](NC(=O)[C@H](C)NC(=O)CCC(=O)NCCNC(=O)CCC(=O)NCCNC(=O)OC(C)(C)C)C(C)C)C(O)C(C)O1` (stereo partly drawn) [Example 58, 4-(2-(4-(2-tert-butoxycarbonyl-aminoethylamino)-4-oxo-butanoylamino)ethylamino)-4-oxo-butanoyl-L-Alanyl-L-Valyl-Doxorubicin], in data set [1], the IC50 was found to be 75 µM.

Consider `CCCCCCCCC=CCCCCCCCC(=O)NCCNC(=O)CCC(=O)NCCNC(=O)CCC(=O)NC(C)C(=O)NC(C(=O)NC1CC(OC2CC(O)(C(=O)CO)Cc3c(O)c4c(c(O)c32)C(=O)c2c(OC)cccc2C4=O)OC(C)C1O)C(C)C` [Example 59, 4-(2-(4-(2-oleoylaminoethylamino)-4-oxo-butanoylamino)ethylamino)-4-oxo-butanoyl-L-Alanyl-L-Valyl-Doxorubicin], for which the IC50 in data set [1] was > 100 µM.

As to `CCCCCCCC/C=C\CCCCCCCC(=O)NCCOCCOCCOCCOCCOCCOCC(=O)N[C@@H](C)C(=O)N[C@H](C(=O)NC1CC(OC2CC(O)(C(=O)COC(=O)CCC(=O)O)Cc3c(O)c4c(c(O)c32)C(=O)c2c(OC)cccc2C4=O)OC(C)C1OC(=O)CCC(=O)O)C(C)C` (stereo partly drawn) [Example 86, 2-(2-(2-(2-(2-(2-(2-oleoylamino-ethoxy)ethoxy)ethoxy)ethoxy)ethoxy)ethoxy)actyl-L-Alanyl-L-Valyl-Doxorubicin bissuccinate], in data set [1], the IC50 was 2.5 µM.

Consider “(4-(2-(2-oleoylaminoethoxy)ethoxy)-4-oxo-butanoyl)-L-Alanyl-L-Valyl-Doxorubicin [Example 69]”, for which the IC50 in data set [2] was > 100 µM; in data set [3] (48 hours), 12000 nM; in data set [1] it was 25 µM.

For “(4-(2-(2-oleoylaminoethoxy)ethylamino)-4-oxo-butanoyl)-L-Alanyl-L-Valyl-Doxorubicin [Example 54]”, the IC50 in data set [1] is 25 µM.

Turning to “(4-(2-oleoylaminoethylamino)-4-oxo-butanoyl)-L-Alanyl-L-Valyl-Doxorubicin [Example 57]”, in data set [1], the IC50 was > 100 µM.

Take “Bissodium 4-(2-(2-oleoylaminoethoxy)ethylamino)-4-oxo-butanoyl-L-Alanyl-L-Valyl-Doxorubicin bissuccinate [Example 112]”: the IC50 in data set [2] came out at 3 µM; in data set [3] (48 hours) it was 1500 nM; in data set [1], 2 µM.

As to “Bissodium linoleic acyl-L-Alanyl-L-Valyl-Doxorubicin bissuccinate [Example 108]”, the IC50 in data set [1] was 15 µM.

In the case of “Bissodium linolenic acyl-L-Alanyl-L-Valyl-Doxorubicin bissuccinate [Example 109]”, in data set [1], the IC50 was 12 µM.

Regarding “Bissodium oleoyl-L-Alanyl-L-Valyl-Doxorubicin bis(2-carboxyl-3,4,5,6-tetrafluorobenzoate) [Example 119]”, the solubility in water entry in data set [4] is given as “more than 1 mg/mL”.

For “DHA acyl-L-Alanyl-L-Valyl-Doxorubicin bissuccinate [Example 82]”, the IC50 in data set [1] came out at 25 µM.

For the compound “Linoleic acyl-L-Alanyl-L-Valyl-Doxorubicin bissuccinate [Example 80]”, the IC50 in data set [2] was > 100 µM; in data set [1], 20 µM.

As to “Linolenic acyl-L-Alanyl-L-Valyl-Doxorubicin bissuccinate [Example 81]”, the IC50 in data set [1] came to 18 µM.

For the compound “Oleoyl-Glycyl-L-Alanyl-L-Valyl-Doxorubicin bissuccinate [Example 74]”, the IC50 in data set [1] worked out at 8 µM.

For “Oleoyl-L-Alanyl-L-Valyl-Daunorubicin bissuccinate [Example 76]”, the IC50 in data set [1] was determined as 10 µM.

Take “Oleoyl-L-Alanyl-L-Valyl-Doxorubicin bis(2-carboxyl-3,4,5,6-tetrafluorobenzoate) [Example 97]”: the IC50 in data set [1] was found to be 10 µM.

For the compound “Oleoyl-L-Alanyl-L-Valyl-Doxorubicin bissuccinate [Example 70]”, the IC50 in data set [2] was > 100 µM; in data set [1], 20 µM.

Regarding “Oleoyl-L-Alanyl-L-Valyl-Epirubicin bissuccinate [Example 75]”, in data set [1], the IC50 was 0.8 µM.

“Oleoyl-L-Alanyl-L-Vayl-Doxorubicin maleate [Example 98]”: the IC50 in data set [1] is 30 µM.

For “Trisodium 4-(2-(2-oleoylaminoethoxy)ethylamino)-4-oxo-butanoyl-L-Alanyl-L-Valyl-Doxorubicin trisuccinate [Example 121]”, the IC50 in data set [2] was 5 µM; in data set [1], 10 µM.
